Patent publication US20110183954A1, “TRICYCLIC 2,4-DIAMINO-L,3,5-TRIAZINE DERIVATIVES USEFUL FOR THE TREATMENT OF CANCER AND MYELOPROLIFERATIVE DISORDERS” (ASTRAZENECA AB, priority 2008, published 2011)

Target: human JAK2 (Homo sapiens, UniProt O60674)
Assay: Method 1 (JAK2): Amplified Luminescent Proximity Assay (Alphascreen)
Format: biochemical
Parameters: His6 (C); purchased Upstate Biotechnology; host or cells: baculovirus in Sf21 cells
Settings: 150 pM JAK2 enzyme, 5 mM ATP, 60 minutes, room temperature, read-out: IC50 (JAK inhibitory activity, Method 1 (JAK2))
Text: JAK2 kinase activity may be determined by measuring the kinase's ability to phosphorylate synthetic tyrosine residues within a generic polypeptide substrate using an Amplified Luminescent Proximity Assay (Alphascreen) technology (PerkinElmer, 549 Albany Street, Boston, Mass.).
To measure JAK2 kinase activity, a commercially available purified enzyme may be used. The enzyme may be a C-terminal His6-tagged, recombinant, human JAK2, amino acids 808-end, (Genbank Accession number NM 004972) expressed by baculovirus in Sf21 cells (Upstate Biotechnology MA). After incubation of the kinase with a biotinylated substrate and adenosine triphosphate (ATP) for 60 minutes at room temperature, the kinase reaction may be stopped by the addition of 30 mM ethylenediaminetetraacetic acid (EDTA). The reaction may be performed in 384 well microtitre plates and the reaction products may be detected with the addition of streptavidin coated Donor Beads and phosphotyrosine-specific antibodies coated Acceptor Beads using the EnVision Multilabel Plate Reader after an overnight incubation at room temperature.

Sequence of human JAK2 (O60674 808-1132 limits assumed): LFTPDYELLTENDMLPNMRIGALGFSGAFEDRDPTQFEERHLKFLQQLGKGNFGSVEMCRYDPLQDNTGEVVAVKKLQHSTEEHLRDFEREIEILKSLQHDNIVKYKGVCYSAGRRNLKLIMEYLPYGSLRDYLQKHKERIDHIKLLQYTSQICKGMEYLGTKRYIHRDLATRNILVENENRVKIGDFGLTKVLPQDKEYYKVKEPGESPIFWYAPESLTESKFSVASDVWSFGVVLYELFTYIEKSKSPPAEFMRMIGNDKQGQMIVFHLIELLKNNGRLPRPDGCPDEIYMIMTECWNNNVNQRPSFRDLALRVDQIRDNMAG

SMILES	IC50 [nM]
Cc1cnc(Nc2nc(N[C@@H](C)c3ncc(F)cn3)nc(N3CCOCC3)n2)s1 [Example 8, N-[(1S)-1-(5-Fluoropyrimidin-2-yl)ethyl]-N′-(5-methyl-1,3-thiazol-2-yl)-6-morpholin-4-yl-1,3,5-triazine-2,4-diamine]	4
COC[C@H](Nc1nc(Nc2cn(C)cn2)nc(N2CCOC(C)C2)n1)c1ncc(F)cc1F (stereo partly drawn) [Example 2, N-[(1R)-1-(3,5-Difluoropyridin-2-yl)-2-methoxyethyl]-N′-(1-methyl-1H-imidazol-4-yl)-6-(2-methylmorpholin-4-yl)-1,3,5-triazine-2,4-diamine]	11
C[C@H](Nc1nc(Nc2cn(CC#N)cn2)nc(N2CCOCC2)n1)c1ncc(F)cn1 [Example 15, {4-[(4-{[(1S)-1-(5-Fluoropyrimidin-2-yl)ethyl]amino}-6-morpholin-4-yl-1,3,5-triazin-2-yl)amino]-1H-imidazol-1-yl}acetonitrile]	873
C[C@H](Nc1nc(Nc2cn(C)cn2)nc(N2CCC(F)(F)CC2)n1)c1ncc(F)cn1 [Example 14, 6-(4,4-Difluoropiperidin-1-yl)-N-[(1S)-1-(5-fluoropyrimidin-2-yl)ethyl]-N′-(1-methyl-1H-imidazol-4-yl)-1,3,5-triazine-2,4-diamine]	7
C[C@H](Nc1nc(Nc2cn(C)cn2)nc(N2CCC(F)CC2)n1)c1ncc(F)cc1F [Example 21, N-[(1S)-1-(3,5-Difluoropyridin-2-yl)ethyl]-6-(4-fluoropiperidin-1-yl)-N′-(1-methyl-1H-imidazol-4-yl)-1,3,5-triazine-2,4-diamine]	4
CCn1cnc(Nc2nc(N[C@@H](C)c3ncc(F)cn3)nc(N3CCOCC3)n2)c1 [Example 35, N-(1-Ethyl-1H-imidazol-4-yl)-N′-[(1S)-1-(5-fluoropyrimidin-2-yl)ethyl]-6-morpholin-4-yl-1,3,5-triazine-2,4-diamine]	23
C[C@H](Nc1nc(Nc2cn(C)cn2)nc(N2CC(F)C2)n1)c1ncc(F)cc1F [Example 18, N-[(1S)-1-(3,5-Difluoropyridin-2-yl)ethyl]-6-(3-fluoroazetidin-1-yl)-N′-(1-methyl-1H-imidazol-4-yl)-1,3,5-triazine-2,4-diamine]	13
C[C@H](Nc1nc(Nc2cn(C)cn2)nc(N2CCOC[C@H]2CO)n1)c1ncc(F)cc1F [Example 22, [(3R)-4-(4-{[(1S)-1-(3,5-difluoropyridin-2-yl)ethyl]amino}-6-[(1-methyl-1H-imidazol-4-yl)amino]-1,3,5-triazin-2-yl)morpholin-3-yl]methanol]	4
COC[C@H](Nc1nc(Nc2cn(C)cn2)nc(N2CCOC(C)(C)C2)n1)c1ncc(F)cc1F [Example 3, N-[(1R)-1-(3,5-Difluoropyridin-2-yl)-2-methoxyethyl]-6-(2,2-dimethylmorpholin-4-yl)-N-(1-methyl-1H-imidazol-4-yl)-1,3,5-triazine-2,4-diamine]	9
COC[C@H](Nc1nc(Nc2cn(C)cn2)nc(N2C[C@@H](C)O[C@@H](C)C2)n1)c1ncc(F)cc1F [Example 1, N-[(1R)-1-(3,5-Difluoropyridin-2-yl)-2-methoxyethyl]-6-[(2R,6S)-2,6-dimethylmorpholin-4-yl]-N′-(1-methyl-1H-imidazol-4-yl)-1,3,5-triazine-2,4-diamine]	18
C[C@@H](Nc1nc(Nc2cn(C)cn2)nc(N2CCOCC2)n1)c1ncc(F)cc1F (single isomer, unassigned) [Example 10(a)]	190
COC[C@H](Nc1nc(Nc2cn(C)cn2)nc(N2CCOCC2)n1)c1ncc(F)cc1F [Example 4, N-[(1R)-1-(3,5-Difluoropyridin-2-yl)-2-methoxyethyl]-N′-(1-methyl-1H-imidazol-4-yl)-6-morpholin-4-yl-1,3,5-triazine-2,4-diamine]	4
C[C@H](Nc1nc(Nc2cn(C)cn2)nc(N2CCC(F)(F)CC2)n1)c1ncc(F)cc1F [Example 9, 6-(4,4-Difluoropiperidin-1-yl)-N-[(1S)-1-(3,5-difluoropyridin-2-yl)ethyl]-N-(1-methyl-1H-imidazol-4-yl)-1,3,5-triazine-2,4-diamine]	4
C[C@H](Nc1nc(Nc2c[nH]cn2)nc(N2CCOCC2)n1)c1ncc(F)cn1 [Example 23, N-[(1S)-1-(5-Fluoropyrimidin-2-yl)ethyl]-N′-1H-imidazol-4-yl-6-morpholin-4-yl-1,3,5-triazine-2,4-diamine]	86
CC(Nc1nc(Nc2cn(C)cn2)nc(N2CCOCC2)n1)c1ncc(F)cc1F (racemic) [Example 10, N-[1-(3,5-Difluoropyridin-2-yl)ethyl]-N′-(1-methyl-1H-imidazol-4-yl)-6-morpholin-4-yl-1,3,5-triazine-2,4-diamine]	4
C[C@H](Nc1nc(Nc2cn(C)cn2)nc(N2CCOCC2)n1)c1ncc(F)cc1F (single isomer, unassigned) [Example 10(b)]	< 8
C[C@H](Nc1nc(Nc2cn(CCc3ccsc3)cn2)nc(N2CCOCC2)n1)c1ncc(F)cn1 [Example 33, N-[(1S)-1-(5-Fluoropyrimidin-2-yl)ethyl]-6-morpholin-4-yl-N′-{1-[2-(3 thienyl)ethyl]-1H-imidazol-4-yl}-1,3,5-triazine-2,4-diamine]	998
C[C@H](Nc1nc(Nc2cscn2)nc(N2CCOCC2)n1)c1ncc(F)cn1 [Example 26, N-[(1S)-1-(5-Fluoropyrimidin-2-yl)ethyl]-6-morpholin-4-yl-N′-1,3-thiazol-4-yl-1,3,5-triazine-2,4-diamine]	219
CC(C)n1cnc(Nc2nc(N[C@@H](C)c3ncc(F)cn3)nc(N3CCOCC3)n2)c1 [Example 17, N-[(1S)-1-(5-Fluoropyrimidin-2-yl)ethyl]-N′-(1-isopropyl-1H-imidazol-4-yl)-6-morpholin-4-yl-1,3,5-triazine-2,4-diamine]	2880
C[C@H](Nc1nc(Nc2ncc(C#N)s2)nc(N2CCOCC2)n1)c1ncc(F)cn1 [Example 7, 2-[(4-{[(1S)-1-(5-Fluoropyrimidin-2-yl)ethyl]amino}-6-morpholin-4-yl-1,3,5-triazin-2-yl)amino]-1,3-thiazole-5-carbonitrile]	3170
C[C@H](Nc1nc(Nc2cn(CC(F)(F)F)cn2)nc(N2CCOCC2)n1)c1ncc(F)cn1 [Example 34, N-[(1S)-1-(5-fluoropyrimidin-2-yl)ethyl]-6-morpholin-4-yl-N′-[1-(2,2,2-trifluoroethyl)-1H-imidazol-4-yl]-1,3,5-triazine-2,4-diamine]	8320
COC1CN(c2nc(Nc3cn(C)cn3)nc(N[C@@H](C)c3ncc(F)cc3F)n2)C1 [Example 19, N-[(1S)-1-(3,5-Difluoropyridin-2-yl)ethyl]-6-(3-methoxyazetidin-1-yl)-N′-(1-methyl-1H-imidazol-4-yl)-1,3,5-triazine-2,4-diamine]	3
C[C@H](Nc1nc(Nc2cn(CCc3ccccc3)cn2)nc(N2CCOCC2)n1)c1ncc(F)cn1 [Example 6, N-[(1S)-1-(5-Fluoropyrimidin-2-yl)ethyl]-6-morpholin-4-yl-N′-[1-(2-phenylethyl)-1H-imidazol-4-yl]-1,3,5-triazine-2,4-diamine]	283
C[C@H](Nc1nc(Nc2cn(C3CC3)cn2)nc(N2CCOCC2)n1)c1ncc(F)cn1 [Example 32, N-(1-Cyclopropyl-1H-imidazol-4-yl)-N′-[(1S)-1-(5-fluoropyrimidin-2-yl)ethyl]-6-morpholin-4-yl-1,3,5-triazine-2,4-diamine]	393
CCn1cnc(Nc2nc(N[C@@H](C)c3ncc(F)cc3F)nc(N3CCOCC3)n2)c1 [Example 31, N-[(1S)-1-(3,5-difluoropyridin-2-yl)ethyl]-N′-(1-ethyl-1H-imidazol-4-yl)-6-morpholin-4-yl-1,3,5-triazine-2,4-diamine]	234
C[C@H](Nc1nc(Nc2cn(C)cn2)nc(N2CCOCC2)n1)c1ncc(F)cn1 [Example 5, N-[(1S)-1-(5-Fluoropyrimidin-2-yl)ethyl]-N′-(1-methyl-1H-imidazol-4-yl)-6-morpholin-4-yl-1,3,5-triazine-2,4-diamine]	9
COC1CN(c2nc(Nc3cn(C)cn3)nc(N[C@@H](C)c3ncc(F)cn3)n2)C1 [Example 20, N-[(1S)-1-(5-Fluoropyrimidin-2-yl)ethyl]-6-(3-methoxyazetidin-1-yl)-N′-(1-methyl-1H-imidazol-4-yl)-1,3,5-triazine-2,4-diamine]	7
C[C@H](Nc1nc(Nc2cn(C)cn2)nc(N2CCOCC2)n1)c1ccc(C#N)cc1 [Example 28, 4-[(1S)-1-({4-[(1-methyl-1H-imidazol-4-yl)amino]-6-morpholin-4-yl-1,3,5-triazin-2-yl}amino)ethyl]benzonitrile]	798
COCn1cnc(Nc2nc(N[C@@H](C)c3ncc(F)cn3)nc(N3CCOCC3)n2)c1 [Example 16, N-[(1S)-1-(5-Fluoropyrimidin-2-yl)ethyl]-N′-[1-(methoxymethyl)-1H-imidazol-4-yl]-6-morpholin-4-yl-1,3,5-triazine-2,4-diamine]	2870
